From article PMC3292429 (Channels, 2009)
“Also recorded” adds a separate entry of the source.

What was measured:
IK1 channel = details: cited from earlier work; for mechanism of IK1 current increase: result in words
[1] = tested on: BK channel (large conductance Ca^2+-activated K channel, KCa1.1) in parotid acinar cells; assay: Whole-cell patch clamp: IK1-induced inhibition of BK current; format: cell-based, mouse
[2] = tested on: IK1 (intermediate conductance Ca^2+-activated K channel, KCa3.1); assay: Whole-cell patch clamp: IK1 current; format: cell-based, mouse; details: 10 μM DCEBIO, +50 mV, 80 nM free Ca^2+; result in words
BK channel [3] = biological target: BK channel (Mus musculus, UniProt Q08460); details: result in words; cited from earlier work
Sequence of BK channel (Mus musculus, UniProt Q08460) (Q08460 whole entry): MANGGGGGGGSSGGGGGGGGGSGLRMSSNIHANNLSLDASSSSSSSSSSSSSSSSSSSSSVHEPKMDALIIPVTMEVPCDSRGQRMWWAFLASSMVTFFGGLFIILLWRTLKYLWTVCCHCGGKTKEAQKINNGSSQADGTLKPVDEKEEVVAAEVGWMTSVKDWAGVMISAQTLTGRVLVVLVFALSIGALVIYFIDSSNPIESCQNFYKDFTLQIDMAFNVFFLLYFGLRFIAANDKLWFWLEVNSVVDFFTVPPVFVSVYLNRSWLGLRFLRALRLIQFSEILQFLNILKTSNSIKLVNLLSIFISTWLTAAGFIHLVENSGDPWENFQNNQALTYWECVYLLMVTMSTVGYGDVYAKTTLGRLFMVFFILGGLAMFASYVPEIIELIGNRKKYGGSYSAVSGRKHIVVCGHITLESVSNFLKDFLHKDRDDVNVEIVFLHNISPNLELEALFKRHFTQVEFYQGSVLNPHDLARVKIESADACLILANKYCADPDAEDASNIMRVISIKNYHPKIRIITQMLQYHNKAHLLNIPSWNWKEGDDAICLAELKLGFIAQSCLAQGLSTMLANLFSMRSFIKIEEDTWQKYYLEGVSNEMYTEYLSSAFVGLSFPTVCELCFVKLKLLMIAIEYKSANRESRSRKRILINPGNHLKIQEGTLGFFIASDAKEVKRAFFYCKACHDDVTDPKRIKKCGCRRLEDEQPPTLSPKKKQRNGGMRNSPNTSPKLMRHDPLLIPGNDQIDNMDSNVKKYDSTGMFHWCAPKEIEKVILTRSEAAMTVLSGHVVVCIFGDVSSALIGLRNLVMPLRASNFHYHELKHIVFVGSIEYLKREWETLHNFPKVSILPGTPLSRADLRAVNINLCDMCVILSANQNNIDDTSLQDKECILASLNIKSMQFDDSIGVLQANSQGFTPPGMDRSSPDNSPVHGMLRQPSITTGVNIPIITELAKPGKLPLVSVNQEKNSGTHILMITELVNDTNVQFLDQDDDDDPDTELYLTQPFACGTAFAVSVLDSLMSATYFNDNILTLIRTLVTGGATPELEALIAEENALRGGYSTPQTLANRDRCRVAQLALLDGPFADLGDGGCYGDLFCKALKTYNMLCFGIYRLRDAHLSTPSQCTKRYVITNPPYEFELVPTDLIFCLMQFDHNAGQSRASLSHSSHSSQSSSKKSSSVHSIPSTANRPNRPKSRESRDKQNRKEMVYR

BK channel [4] = details: result in words, cited from earlier work
[5] = tested on: IK1 (intermediate conductance Ca^2+-activated K channel, KCa3.1); details: result in words; cited from earlier work
[6] = stated without own data or reference

Structure (SMILES): CCn1c(=O)[nH]c2ccccc21 [1-EBIO, 1-ethyl-2-benzimidazolinone]
- share of closed events accounted for by the two closed times together (IK1 channel; channels activated by 1-EBIO): 97%
- share of events with closed time 5 msec (IK1 channel; channels activated by 1-EBIO): 31%
- share of events with closed time about 1.6 msec (IK1 channel; channels activated by 1-EBIO): 66%
- mechanism of IK1 current increase (IK1 channel): increase IK1 current by increasing the channel open probability

Structure (SMILES): CCn1c(=O)[nH]c2cc(Cl)c(Cl)cc21 [DCEBIO, 5,6-Dichloro-1-ethyl-1,3-dihydro-2H-benzimidazol-2-one]
- reduction of BK current ([1]; 2 μM DCEBIO, pooled from 5 cells, voltage-independent (Fig. 5A)): 50%
- recovery of BK current after washout of DCEBIO ([1]; 10 μM DCEBIO, +50 mV, 80 nM free Ca^2+ in pipette, single example (Fig. 1)): 96 % of control
- mean recovery of BK current after washout of DCEBIO ([1]; 10 μM DCEBIO, +50 mV, mean ± SEM, 9 experiments): 94 ± 3%
- effect on time-dependent BK current ([1]; 10 μM DCEBIO, +50 mV, reversible, result in words): time-dependent BK current was reduced when IK1 channels were activated
- inhibition of BK channel current by IK1 activation ([1]; 10 μM DCEBIO, +50 mV, single example (Fig. 2)): 60%
- reduction in BK current by IK1 activation, remaining cells ([1]; 10 μM DCEBIO, four of 19 cells, omitted from analysis, result in words): only modest reductions
- voltage dependence of IK1-induced BK inhibition ([1]; 10 μM DCEBIO, range of test voltages, result in words): very little voltage dependence; also recorded: relatively little and no consistent voltage dependence
- mean block of BK current by IK1 activation ([1]; DCEBIO (10 μM), +50 mV, mean ± SEM, N = 5): 66 ± 6%
- activation of IK1 current [2]: activated the time and voltage independent IK1 currents; also recorded: triggered the expected time- and voltage-independent current through these channels
- mechanism of IK1 current increase (IK1 channel): increase IK1 current by increasing the channel open probability
- effect on BK channels in cells from IK1 gene-ablated mice (BK channel [3]): no effects on BK channels

Structure (SMILES): CC[N+](CC)(CC)CC [TEA]
- effect of internal TEA on BK single channel current level (BK channel [4]; [6]): reduction in the BK single channel current level (as does TEA)
- time dependence of open channel block by internal TEA (BK channel [4]; [6]): no apparent time dependence

Structure (SMILES): Clc1ccccc1C(c1ccccc1)(c1ccccc1)n1cccn1 [TRAM-34]
- mean BK level after IK1 block by TRAM-34 ([1]; 1 or 10 μM TRAM-34 in presence of DCEBIO, mean ± SEM, N = 5): 88 ± 3 % of control
- IK1 channel inhibition [5]: IK1 inhibitor

Structure (SMILES): C[N+](C)(C)CCCCCCCCCC[N+](C)(C)C [decamethonium]
- competition of native β subunit inactivation with cytosolic blockers (BK channel [4]): does not

Structure (SMILES): CC(C)(O)[C@H]1O[C@H]2CC[C@@]3(C)[C@@](O)(CC[C@H]4Cc5c([nH]c6ccccc56)[C@@]43C)C2=CC1=O [paxilline]
- BK channel block by paxilline (BK channel [4]): specific BK channel blocker
